Activity calls are given as the source filed them. No cut-off for these calls is given here.
Legend:
[1] = molecular target: T1, ALK tyrosine kinase receptor (Homo sapiens, UniProt Q9UM73); experiment: Inhibition of ALK in human NCI-H2228 cells assessed as reduction in STAT3 phosphorylation by measuring phosphorylated STAT3 level at 1000 nmol/L measured after 4 hrs by Western blot analysis relative to control; format: cell-based; design: scale not given: the % may be the effect or the level left
T1 sequence (Q9UM73 19-1620 limits assumed): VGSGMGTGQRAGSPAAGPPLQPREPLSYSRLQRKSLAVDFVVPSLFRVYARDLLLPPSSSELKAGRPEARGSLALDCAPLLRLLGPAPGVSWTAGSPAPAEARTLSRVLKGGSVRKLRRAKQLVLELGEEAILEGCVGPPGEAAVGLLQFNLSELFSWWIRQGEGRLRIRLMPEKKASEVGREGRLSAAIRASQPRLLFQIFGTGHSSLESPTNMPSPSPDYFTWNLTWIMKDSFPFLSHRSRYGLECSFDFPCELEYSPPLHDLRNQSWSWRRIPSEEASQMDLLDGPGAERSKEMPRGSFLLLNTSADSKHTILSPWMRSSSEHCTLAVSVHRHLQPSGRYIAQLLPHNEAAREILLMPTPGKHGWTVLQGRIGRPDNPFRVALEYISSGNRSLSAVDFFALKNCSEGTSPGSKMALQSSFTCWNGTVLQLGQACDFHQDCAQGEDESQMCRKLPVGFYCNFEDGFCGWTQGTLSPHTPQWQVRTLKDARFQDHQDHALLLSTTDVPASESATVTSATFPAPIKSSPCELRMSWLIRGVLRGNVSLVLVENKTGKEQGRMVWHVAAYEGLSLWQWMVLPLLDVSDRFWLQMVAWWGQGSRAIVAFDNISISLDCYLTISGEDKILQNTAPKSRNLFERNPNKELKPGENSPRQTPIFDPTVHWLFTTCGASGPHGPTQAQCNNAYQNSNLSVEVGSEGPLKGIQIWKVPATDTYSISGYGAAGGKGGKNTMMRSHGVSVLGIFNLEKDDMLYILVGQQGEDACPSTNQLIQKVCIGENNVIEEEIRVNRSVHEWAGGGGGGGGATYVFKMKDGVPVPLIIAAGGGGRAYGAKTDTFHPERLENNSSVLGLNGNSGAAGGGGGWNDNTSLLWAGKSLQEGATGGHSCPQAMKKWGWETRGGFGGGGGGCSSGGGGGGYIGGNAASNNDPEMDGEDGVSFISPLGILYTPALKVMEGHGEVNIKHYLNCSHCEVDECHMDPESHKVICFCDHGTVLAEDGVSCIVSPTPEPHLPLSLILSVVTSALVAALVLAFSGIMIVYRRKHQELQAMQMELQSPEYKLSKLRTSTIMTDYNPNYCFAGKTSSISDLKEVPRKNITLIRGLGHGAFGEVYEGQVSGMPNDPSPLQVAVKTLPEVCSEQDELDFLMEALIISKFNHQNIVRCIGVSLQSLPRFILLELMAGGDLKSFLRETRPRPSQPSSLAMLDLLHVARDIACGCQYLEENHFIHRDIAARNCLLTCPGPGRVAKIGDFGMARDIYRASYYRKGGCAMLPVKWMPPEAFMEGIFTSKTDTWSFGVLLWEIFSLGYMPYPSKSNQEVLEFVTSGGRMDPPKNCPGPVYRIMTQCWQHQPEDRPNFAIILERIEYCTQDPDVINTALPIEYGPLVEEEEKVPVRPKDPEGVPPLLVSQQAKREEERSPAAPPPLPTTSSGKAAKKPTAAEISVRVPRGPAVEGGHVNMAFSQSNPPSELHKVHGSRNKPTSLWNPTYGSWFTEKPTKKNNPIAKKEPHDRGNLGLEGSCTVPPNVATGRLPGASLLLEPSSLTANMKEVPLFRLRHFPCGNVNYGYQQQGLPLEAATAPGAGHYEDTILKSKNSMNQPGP

[2] = molecular target: T1, ALK tyrosine kinase receptor; experiment: Inhibition of ALK in human NCI-H2228 cells assessed as reduction in ERK phosphorylation by measuring phosphorylated ERK level at 10 nmol/L measured after 4 hrs by Western blot analysis relative to control; format: cell-based; design: scale not given: the % may be the effect or the level left
NCI-H2228 [3] = experiment: Potentiation of carboplatin-induced antitumor activity against human NCI-H2228 cells xenografted in NOD.CB17-Prkdcscid/J mouse assessed as reduction in tumor volume at 10 mg/kg, po administered once daily for 5 days; format: functional, organism-based; conditions: time 5.0 day
Mus musculus [4] = experiment: Antitumor activity against hEML4-ALK transgenic C57BL/6J mouse assessed as reduction in tumor mass at 100 mg/kg, po administered daily for 10 days and measured on day 11 by computed tomography scan analysis; format: functional, organism-based; conditions: time 11.0 day
[5] = Ratio of drug level in tumor to plasma of hEML4-ALK transgenic C57BL/6J mouse at 10 to 100 mg/kg, po administered daily for 10 days and measured 24 hrs post-last dose; format: ADME, organism-based; conditions: dose 10-100 mg/kg, time 11 day
[6] = molecular target: Leukocyte tyrosine kinase receptor (Homo sapiens, UniProt P29376)
Sequence of Leukocyte tyrosine kinase receptor (P29376 whole entry): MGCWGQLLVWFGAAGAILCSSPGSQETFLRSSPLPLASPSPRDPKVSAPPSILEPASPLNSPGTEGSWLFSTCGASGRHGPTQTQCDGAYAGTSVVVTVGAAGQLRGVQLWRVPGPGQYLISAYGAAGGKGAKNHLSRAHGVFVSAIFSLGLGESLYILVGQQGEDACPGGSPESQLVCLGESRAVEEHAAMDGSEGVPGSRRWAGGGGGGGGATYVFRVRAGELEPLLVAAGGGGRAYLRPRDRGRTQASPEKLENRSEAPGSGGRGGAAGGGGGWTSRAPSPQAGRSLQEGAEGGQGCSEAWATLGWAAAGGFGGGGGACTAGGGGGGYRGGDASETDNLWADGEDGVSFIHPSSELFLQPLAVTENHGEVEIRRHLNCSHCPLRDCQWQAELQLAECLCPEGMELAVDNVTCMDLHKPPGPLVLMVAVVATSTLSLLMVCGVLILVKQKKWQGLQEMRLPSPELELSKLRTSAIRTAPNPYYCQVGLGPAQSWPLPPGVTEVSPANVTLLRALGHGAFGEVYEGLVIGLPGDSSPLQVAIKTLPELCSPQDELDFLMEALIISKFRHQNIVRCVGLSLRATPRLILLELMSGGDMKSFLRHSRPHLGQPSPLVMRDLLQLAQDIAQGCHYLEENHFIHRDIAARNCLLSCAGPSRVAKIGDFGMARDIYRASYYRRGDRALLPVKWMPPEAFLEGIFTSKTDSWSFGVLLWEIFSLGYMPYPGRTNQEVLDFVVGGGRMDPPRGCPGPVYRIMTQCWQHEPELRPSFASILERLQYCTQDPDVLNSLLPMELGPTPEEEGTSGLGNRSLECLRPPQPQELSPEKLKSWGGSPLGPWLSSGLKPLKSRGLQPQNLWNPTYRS

[7] = Tmax in human NCI-H2228 cell xenografted NOD.CB17-Prkdcscid/J mouse tumor at 1 mg/kg/day for 5 days by HPLC-MS analysis; format: ADME, organism-based, Neoplasm; conditions: route po, time 5 day
[8] = molecular target: Tyrosine-protein kinase Mer (Homo sapiens, UniProt Q12866)
Mus musculus [9] = experiment: Antitumor activity against hEML4-ALK transgenic C57BL/6J mouse assessed as reduction in pulmonary tumor size at 30 to 100 mg/kg, po administered daily for 10 days and measured on day 7 and 11 by computed tomography scan analysis; format: functional, organism-based; conditions: dose 30-100 mg/kg, time 7-11 day
[10] = Ratio of Cmax in human NCI-H2228 cell xenografted NOD.CB17-Prkdcscid/J mouse tumor to plasma at 3 mg/kg/day for 5 days by HPLC-MS analysis; format: ADME, organism-based; conditions: tumor and plasma, route po, time 5 day
[11] = molecular target: Tyrosine-protein kinase JAK2 (Homo sapiens, UniProt O60674)
Sequence of Tyrosine-protein kinase JAK2 (O60674 whole entry): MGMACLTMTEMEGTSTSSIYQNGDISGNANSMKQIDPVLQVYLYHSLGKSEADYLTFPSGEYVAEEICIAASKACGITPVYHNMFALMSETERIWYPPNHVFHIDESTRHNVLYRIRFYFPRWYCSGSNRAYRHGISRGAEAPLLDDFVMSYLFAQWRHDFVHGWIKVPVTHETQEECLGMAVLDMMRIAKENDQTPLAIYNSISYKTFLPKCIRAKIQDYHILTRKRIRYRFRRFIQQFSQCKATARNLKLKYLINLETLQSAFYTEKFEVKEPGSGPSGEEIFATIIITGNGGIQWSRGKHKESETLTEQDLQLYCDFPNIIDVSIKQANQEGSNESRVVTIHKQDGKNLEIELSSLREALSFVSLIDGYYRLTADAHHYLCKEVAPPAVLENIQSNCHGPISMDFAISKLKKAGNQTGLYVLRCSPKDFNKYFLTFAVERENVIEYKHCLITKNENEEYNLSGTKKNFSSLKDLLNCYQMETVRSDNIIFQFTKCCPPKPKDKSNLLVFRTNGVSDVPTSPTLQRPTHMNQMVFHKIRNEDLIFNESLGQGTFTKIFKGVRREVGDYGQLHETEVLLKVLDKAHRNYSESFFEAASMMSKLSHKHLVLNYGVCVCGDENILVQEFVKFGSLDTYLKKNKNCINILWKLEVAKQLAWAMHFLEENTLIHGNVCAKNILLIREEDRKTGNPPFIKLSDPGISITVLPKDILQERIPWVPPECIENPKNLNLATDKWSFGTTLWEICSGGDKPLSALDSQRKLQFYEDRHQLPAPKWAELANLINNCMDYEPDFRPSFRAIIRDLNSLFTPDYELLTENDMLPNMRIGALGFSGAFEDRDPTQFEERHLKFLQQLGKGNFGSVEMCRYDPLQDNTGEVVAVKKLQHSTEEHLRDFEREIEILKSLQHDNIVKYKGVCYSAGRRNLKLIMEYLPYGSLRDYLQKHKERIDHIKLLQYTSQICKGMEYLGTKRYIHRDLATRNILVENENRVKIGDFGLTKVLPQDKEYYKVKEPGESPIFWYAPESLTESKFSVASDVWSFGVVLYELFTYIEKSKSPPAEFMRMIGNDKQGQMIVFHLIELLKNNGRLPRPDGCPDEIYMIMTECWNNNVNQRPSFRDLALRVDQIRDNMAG

NCI-H2228 [12] = experiment: Potentiation of paclitaxel-induced antitumor activity against human NCI-H2228 cells xenografted in NOD.CB17-Prkdcscid/J mouse assessed as increase in tumor regression at 10 mg/kg, po administered once daily for 5 days; format: functional, organism-based; conditions: time 5.0 day
[13] = molecular target: T1, ALK tyrosine kinase receptor; experiment: Inhibition of ALK in human NCI-H2228 cells assessed as reduction in AKT phosphorylation by measuring phosphorylated AKT level at 100 nmol/L measured after 4 hrs by Western blot analysis relative to control; format: cell-based; design: scale not given: the % may be the effect or the level left
[14] = Tmax in human NCI-H2228 cell xenografted NOD.CB17-Prkdcscid/J mouse tumor at 3 mg/kg/day for 5 days by HPLC-MS analysis; format: ADME, organism-based, Neoplasm; conditions: route po, time 5 day
[15] = AUC (0 to 24 hrs) in human NCI-H2228 cell xenografted NOD.CB17-Prkdcscid/J mouse tumor at 1 mg/kg/day for 5 days by HPLC-MS analysis; format: ADME, organism-based, Neoplasm; conditions: in vivo, po, 120 h, time 5 day
[16] = molecular target: Tyrosine-protein kinase Yes (Homo sapiens, UniProt P07947)
Sequence of Tyrosine-protein kinase Yes (P07947 whole entry): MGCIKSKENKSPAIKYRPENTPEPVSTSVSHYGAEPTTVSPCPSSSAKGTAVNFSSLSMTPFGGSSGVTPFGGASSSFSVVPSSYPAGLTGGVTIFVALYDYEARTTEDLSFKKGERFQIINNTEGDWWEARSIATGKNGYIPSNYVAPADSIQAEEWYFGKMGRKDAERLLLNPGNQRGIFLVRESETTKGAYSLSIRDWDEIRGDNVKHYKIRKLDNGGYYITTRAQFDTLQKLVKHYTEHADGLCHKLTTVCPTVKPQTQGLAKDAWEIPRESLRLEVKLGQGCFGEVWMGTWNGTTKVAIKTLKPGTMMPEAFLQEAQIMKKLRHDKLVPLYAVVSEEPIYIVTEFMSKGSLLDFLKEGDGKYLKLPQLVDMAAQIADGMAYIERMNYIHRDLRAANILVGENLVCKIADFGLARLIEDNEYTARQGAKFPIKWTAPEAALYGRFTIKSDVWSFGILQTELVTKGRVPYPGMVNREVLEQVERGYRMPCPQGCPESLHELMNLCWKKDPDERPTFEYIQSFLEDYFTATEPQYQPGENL

NCI-H2228 [17] = experiment: Antitumor activity against human NCI-H2228 cells xenografted in NOD.CB17-Prkdcscid/J mouse assessed as tumor growth inhibition at 30 mg/kg, po administered once daily for 2 weeks relative to control; format: functional; conditions: NCI-H2228, 336 h, read-out: TGI
NCI-H2228 [18] = experiment: Antitumor activity against human NCI-H2228 cells xenografted in NOD.CB17-Prkdcscid/J mouse assessed as tumor growth inhibition at 1 mg/kg, po administered once daily for 2 weeks relative to control; format: functional; conditions: NCI-H2228, 336 h, read-out: TGI
[19] = molecular target: T1, ALK tyrosine kinase receptor; experiment: Inhibition of ALK phosphorylation in human NCI-H2228 cells assessed as phosphorylated ALK level at 10 nmol/L measured after 4 hrs by Western blot analysis relative to control; format: cell-based; design: scale not given: the % may be the effect or the level left
NCI-H2228 [20] = experiment: Antitumor activity against human NCI-H2228 cells xenografted in po dosed NOD.CB17-Prkdcscid/J mouse assessed as tumor growth inhibition administered once daily for 2 weeks; format: functional, organism-based; conditions: dose 1-30 mg/kg

SMILES: COc1cc(N2CCC(N3CCN(C)CC3)CC2)ccc1Nc1ncnc(Nc2ccccc2S(=O)(=O)C(C)C)n1 [ASP-3026]
- Activity [1]: 46%
- Activity [2]: 101%
- Activity (NCI-H2228 [3]): inactive
- Activity (Mus musculus [4]): Active
- Kp at 264 h [5]: > 100
- IC50 [6]: 0.061 µM
- Tmax [7]: 4 h
- IC50 [8]: > 1 µM
- Activity (Mus musculus [9]): Active
- Kp at 120 h [10]: 16
- IC50 [11]: > 1 µM
- Activity (NCI-H2228 [12]): Active
- Activity [13]: 56%
- Tmax [14]: 4 h
- AUC [15]: 13600 ng·h/g
- IC50 [16]: 0.0315 µM
- inhibition in vivo at 30 mg/kg (NCI-H2228 [17]): > 100%
- inhibition in vivo at 1 mg/kg (NCI-H2228 [18]): 69%
- Activity [19]: 70%
- TGI (NCI-H2228 [20]): Dose-Dependent Effect

Reference: ChEMBL document CHEMBL5661983, “The selective anaplastic lymphoma receptor tyrosine kinase inhibitor ASP3026 induces tumor regression and prolongs survival in non-small cell lung cancer model mice” (Mol Cancer Ther, 2014)
